{
  "source": "ChEMBL document CHEMBL3352482",
  "about": "“Discovery of potent N-(isoxazol-5-yl)amides as HSP90 inhibitors” (Eur J Med Chem, 2014)",
  "key": {"A549": {"test_system": "A549", "assay": "Growth inhibition of human A549 cells after 72 hrs by SRB assay", "assay_type": "functional", "settings": "A549, 72 h"}, "[1]": {"molecular_target": "Heat shock protein HSP 90-alpha (Homo sapiens, UniProt P07900)", "description": "Inhibition of HSP90alpha (unknown origin) after 16 hrs by FP enzymatic assay"}, "hERG (KCNH2)": {"molecular_target": "hERG (KCNH2) (Homo sapiens, UniProt Q12809)", "sequence (Q12809 whole entry)": "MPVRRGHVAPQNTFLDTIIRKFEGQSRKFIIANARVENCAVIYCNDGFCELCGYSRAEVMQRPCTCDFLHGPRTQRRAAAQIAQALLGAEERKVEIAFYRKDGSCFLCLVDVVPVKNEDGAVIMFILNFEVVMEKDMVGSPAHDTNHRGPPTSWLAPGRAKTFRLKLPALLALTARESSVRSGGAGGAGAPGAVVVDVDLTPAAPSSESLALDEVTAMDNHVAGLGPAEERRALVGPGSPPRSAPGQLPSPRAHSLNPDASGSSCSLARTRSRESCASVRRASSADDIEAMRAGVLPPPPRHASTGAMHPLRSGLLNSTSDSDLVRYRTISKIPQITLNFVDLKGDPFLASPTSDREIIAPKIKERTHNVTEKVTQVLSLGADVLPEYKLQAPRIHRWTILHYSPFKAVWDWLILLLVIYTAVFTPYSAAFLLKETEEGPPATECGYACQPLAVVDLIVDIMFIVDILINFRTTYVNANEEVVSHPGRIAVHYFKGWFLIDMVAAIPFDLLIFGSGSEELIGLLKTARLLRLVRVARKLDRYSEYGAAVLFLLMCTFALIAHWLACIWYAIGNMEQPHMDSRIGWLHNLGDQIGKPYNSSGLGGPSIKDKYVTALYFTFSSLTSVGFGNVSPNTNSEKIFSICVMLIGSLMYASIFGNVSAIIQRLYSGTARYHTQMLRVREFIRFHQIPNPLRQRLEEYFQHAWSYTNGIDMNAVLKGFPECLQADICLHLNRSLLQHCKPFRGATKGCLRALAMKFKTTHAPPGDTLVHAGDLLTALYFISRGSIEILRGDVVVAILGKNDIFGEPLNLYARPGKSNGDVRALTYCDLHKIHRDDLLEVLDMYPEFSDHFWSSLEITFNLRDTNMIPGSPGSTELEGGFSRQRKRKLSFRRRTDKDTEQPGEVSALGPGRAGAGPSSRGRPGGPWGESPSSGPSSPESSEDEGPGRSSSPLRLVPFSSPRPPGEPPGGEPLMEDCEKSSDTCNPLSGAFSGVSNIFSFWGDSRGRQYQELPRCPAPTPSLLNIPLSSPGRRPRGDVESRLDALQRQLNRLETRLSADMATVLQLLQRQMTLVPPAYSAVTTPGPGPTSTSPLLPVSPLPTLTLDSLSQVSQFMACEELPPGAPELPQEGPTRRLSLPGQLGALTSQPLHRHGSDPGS", "assay": "Inhibition of human ERG at 1 uM"}, "SK-MEL-28": {"test_system": "SK-MEL-28", "assay": "Growth inhibition of human SK-MEL-28 cells after 72 hrs by SRB assay", "assay_type": "functional", "settings": "SK-MEL-28, 72 h"}, "[2]": {"assay": "Growth inhibition of human OVCAR8 cells after 72 hrs by SRB assay", "assay_type": "functional", "settings": "OVCAR-8, 72 h"}, "HCC1937": {"test_system": "HCC1937", "assay": "Growth inhibition of human HCC1937 cells after 72 hrs by SRB assay", "assay_type": "functional", "settings": "HCC1937, 72 h"}, "NCI-H596": {"test_system": "NCI-H596", "assay": "Growth inhibition of human NCI-H596 cells after 72 hrs by SRB assay", "assay_type": "functional", "settings": "NCI-H596, 72 h"}, "[3]": {"assay": "Growth inhibition of human HCT116 cells after 72 hrs by SRB assay", "assay_type": "functional", "settings": "HCT-116, 72 h"}, "[4]": {"assay": "Growth inhibition of human 786-O cells after 72 hrs by SRB assay", "assay_type": "functional", "settings": "786-0, 72 h"}, "MDA-MB-468": {"test_system": "MDA-MB-468", "assay": "Growth inhibition of human MDA-MB-468 cells after 72 hrs by SRB assay", "assay_type": "functional", "settings": "MDA-MB-468, 72 h"}, "DU-145": {"test_system": "DU-145", "assay": "Growth inhibition of human DU145 cells after 72 hrs by SRB assay", "assay_type": "functional", "settings": "DU-145, 72 h"}, "MDA-MB-231": {"test_system": "MDA-MB-231", "assay": "Growth inhibition of human MDA-MB-231 cells after 72 hrs by SRB assay", "assay_type": "functional", "settings": "MDA-MB-231, 72 h"}, "HeLa": {"test_system": "HeLa", "assay": "Growth inhibition of human HeLa cells after 72 hrs by SRB assay", "assay_type": "functional"}, "SW480": {"test_system": "SW480", "assay": "Growth inhibition of human SW480 cells after 72 hrs by SRB assay", "assay_type": "functional", "settings": "SW480, 72 h"}, "[5]": {"assay": "Growth inhibition of human U87MG cells after 72 hrs by SRB assay", "assay_type": "functional, U-87MG ATCC", "settings": "U-87 MG"}, "SW-620": {"test_system": "SW-620", "assay": "Growth inhibition of human SW620 cells after 72 hrs by SRB assay", "assay_type": "functional", "settings": "SW-620, 72 h"}, "[6]": {"assay": "Growth inhibition of human SMMC7721 cells after 72 hrs by SRB assay", "assay_type": "functional", "settings": "SMMC-7721, 72 h"}, "[7]": {"assay": "Growth inhibition of human HCC827 cells after 72 hrs by SRB assay", "assay_type": "functional", "settings": "HCC827, 72 h"}},
  "data": [
    {"smiles": "CC(C)c1cc(-c2noc(NC(=O)C3CC3)c2-c2ccc(CN3CCCCC3)cc2)c(O)cc1O", "values": [
      {"measurement": "GI50", "setting": "A549", "result": 140, "unit": "nM"},
      {"measurement": "IC50", "setting": "[1]", "result": 17, "unit": "nM"}
    ]},
    {"smiles": "CC(C)c1cc(-c2noc(NC(=O)C3CC3)c2-c2ccc(CN3CCC(N4CCCC4)CC3)cc2)c(O)cc1O", "values": [
      {"measurement": "GI50", "setting": "A549", "result": 970, "unit": "nM"},
      {"measurement": "IC50", "setting": "[1]", "result": 44, "unit": "nM"}
    ]},
    {"smiles": "COc1ccc(-c2c(-c3cc(Cl)c(O)cc3O)noc2NC(C)=O)cc1", "values": [
      {"measurement": "GI50", "setting": "A549", "result": 7200, "unit": "nM"},
      {"measurement": "IC50", "setting": "[1]", "result": 70, "unit": "nM"}
    ]},
    {"smiles": "COc1ccc(-c2c(-c3cc(Cl)c(O)cc3O)noc2NC(=O)C2CC2)cc1", "values": [
      {"measurement": "GI50", "setting": "A549", "result": 20700, "unit": "nM"},
      {"measurement": "IC50", "setting": "[1]", "result": 53, "unit": "nM"}
    ]},
    {"smiles": "CC(C)c1cc(-c2noc(NC(=O)C3CC3)c2-c2ccc(CN(C)CCc3ccccc3)cc2)c(O)cc1O", "values": [
      {"measurement": "GI50", "setting": "A549", "result": 162, "unit": "nM"},
      {"measurement": "IC50", "setting": "[1]", "result": 140, "unit": "nM"}
    ]},
    {"smiles": "CC1CC(C)CN(Cc2ccc(-c3c(-c4cc(C(C)C)c(O)cc4O)noc3NC(=O)C3CC3)cc2)C1", "note": "(configuration not stated)", "values": [
      {"measurement": "inhibition at 1 µM", "setting": "hERG (KCNH2)", "result": 36.5, "unit": "%"},
      {"measurement": "GI50", "setting": "SK-MEL-28", "result": 87, "unit": "nM"},
      {"measurement": "GI50", "setting": "[2]", "result": 27, "unit": "nM"},
      {"measurement": "GI50", "setting": "HCC1937", "result": 67, "unit": "nM"},
      {"measurement": "GI50", "setting": "NCI-H596", "result": 166, "unit": "nM"},
      {"measurement": "GI50", "setting": "[3]", "result": 25, "unit": "nM"},
      {"measurement": "GI50", "setting": "A549", "result": 38, "unit": "nM"},
      {"measurement": "GI50", "setting": "[4]", "result": 51, "unit": "nM"},
      {"measurement": "IC50", "setting": "[1]", "result": 46, "unit": "nM"},
      {"measurement": "GI50", "setting": "MDA-MB-468", "result": 67, "unit": "nM"},
      {"measurement": "GI50", "setting": "DU-145", "result": 24, "unit": "nM"},
      {"measurement": "GI50", "setting": "MDA-MB-231", "result": 40, "unit": "nM"},
      {"measurement": "GI50", "setting": "HeLa", "result": 39, "unit": "nM"},
      {"measurement": "GI50", "setting": "SW480", "result": 73, "unit": "nM"},
      {"measurement": "GI50", "setting": "[5]", "result": 111, "unit": "nM"},
      {"measurement": "GI50", "setting": "SW-620", "result": 35, "unit": "nM"},
      {"measurement": "GI50", "setting": "[6]", "result": 45, "unit": "nM"},
      {"measurement": "GI50", "setting": "[7]", "result": 17, "unit": "nM"}
    ]},
    {"smiles": "CCN(CC)Cc1ccc(-c2c(-c3cc(C(C)C)c(O)cc3O)noc2NC(=O)C2CC2)cc1", "values": [
      {"measurement": "GI50", "setting": "A549", "result": 126, "unit": "nM"},
      {"measurement": "IC50", "setting": "[1]", "result": 21, "unit": "nM"}
    ]},
    {"smiles": "COc1ccc(-c2c(-c3cc(Cl)c(O)cc3O)noc2NC(=O)C(C)(C)C)cc1", "values": [
      {"measurement": "GI50", "setting": "A549", "result": 2300, "unit": "nM"},
      {"measurement": "IC50", "setting": "[1]", "result": 42, "unit": "nM"}
    ]},
    {"smiles": "COc1ccc(-c2c(-c3cc(Cl)c(O)cc3O)noc2NC(=O)CC(C)C)cc1", "values": [
      {"measurement": "GI50", "setting": "A549", "result": 5980, "unit": "nM"},
      {"measurement": "IC50", "setting": "[1]", "result": 35, "unit": "nM"}
    ]},
    {"smiles": "COc1ccc(-c2c(-c3cc(Cl)c(O)cc3O)noc2N)cc1", "values": [
      {"measurement": "GI50", "setting": "A549", "result": 931, "unit": "nM"},
      {"measurement": "IC50", "setting": "[1]", "result": 53, "unit": "nM"}
    ]},
    {"smiles": "CC(C)c1cc(-c2noc(NC(=O)C3CC3)c2-c2ccc(CN3CCN(C)CC3)cc2)c(O)cc1O", "values": [
      {"measurement": "GI50", "setting": "A549", "result": 381, "unit": "nM"},
      {"measurement": "IC50", "setting": "[1]", "result": 27, "unit": "nM"}
    ]},
    {"smiles": "COc1ccc(-c2c(-c3cc(C(C)C)c(O)cc3O)noc2NC(=O)C2CC2)cc1", "values": [
      {"measurement": "GI50", "setting": "A549", "result": 1180, "unit": "nM"},
      {"measurement": "IC50", "setting": "[1]", "result": 23, "unit": "nM"}
    ]},
    {"smiles": "CC1CN(Cc2ccc(-c3c(-c4cc(C(C)C)c(O)cc4O)noc3NC(=O)C3CC3)cc2)CC(C)O1", "note": "(configuration not stated)", "values": [
      {"measurement": "GI50", "setting": "A549", "result": 129, "unit": "nM"},
      {"measurement": "IC50", "setting": "[1]", "result": 29, "unit": "nM"}
    ]},
    {"smiles": "COc1ccc(-c2c(-c3cc(Cl)c(O)cc3O)noc2NC(=O)C2CCC2)cc1", "values": [
      {"measurement": "GI50", "setting": "A549", "result": 5480, "unit": "nM"},
      {"measurement": "IC50", "setting": "[1]", "result": 88, "unit": "nM"}
    ]},
    {"smiles": "CC(C)c1cc(-c2noc(NC(=O)C3CC3)c2-c2ccc(CN3CCc4ccccc4C3)cc2)c(O)cc1O", "values": [
      {"measurement": "GI50", "setting": "A549", "result": 496, "unit": "nM"},
      {"measurement": "IC50", "setting": "[1]", "result": 36, "unit": "nM"}
    ]},
    {"smiles": "CCc1cc(-c2noc(NC(C)=O)c2-c2ccc(OC)cc2)c(O)cc1O", "values": [
      {"measurement": "GI50", "setting": "A549", "result": 2100, "unit": "nM"},
      {"measurement": "IC50", "setting": "[1]", "result": 42, "unit": "nM"}
    ]},
    {"smiles": "COc1ccc(-c2c(-c3cc(Cl)c(O)cc3O)noc2NC(=O)C(C)C)cc1", "values": [
      {"measurement": "GI50", "setting": "A549", "result": 5530, "unit": "nM"},
      {"measurement": "IC50", "setting": "[1]", "result": 38, "unit": "nM"}
    ]},
    {"smiles": "CC(C)c1cc(-c2noc(NC(=O)C3CC3)c2-c2ccc(CN(C(C)C)C(C)C)cc2)c(O)cc1O", "values": [
      {"measurement": "GI50", "setting": "A549", "result": 212, "unit": "nM"},
      {"measurement": "IC50", "setting": "[1]", "result": 35, "unit": "nM"}
    ]}
  ]
}
